Where “and” joins values, the source holds several entries; their conditions need not be identical. Equal values may be shown once. Entries after “also recorded” stand apart in the source; their conditions may differ.
Columns and labels:
[1] = tested on: coronary arteries in humans with coronary artery disease; assay: FFR during continuous intracoronary infusion via microcatheter (Example 3); assay type: in vivo; details: for % of patients with FFR ≦ 0.8 / adverse effects during IC continuous infusion: microcatheter study; for adverse effects during IC continuous infusion: 10 patients; for optimal dose for achieving maximal coronary hyperemia and thereby the lowest FFR: FIG. 5
Source text: As described previously, inducing stable maximal coronary hyperemia is essential for measurement of fractional flow reserve (FFR). This second experiment in a similar patient group evaluated the differential efficacy of intracoronary (IC) continuous adenosine infusion vs. IC continuous uridine triphosphate (UTP) infusion via a microcatheter for inducing steady state maximal coronary hyperemia. The present study was designed to evaluate the safety and effectiveness of the equimolar concentrations of UTP vs. adenosine infusion for use in the FFR method. Time to achievement of steady-state, impact of maximal hyperemia (lowest FFR) for the different compounds and side effects were recorded in 10 patients with intermediate coronary lesions. FFR was measured consecutively by IC continuous adenosine or UTP infusion using a microcatheter to bypass the proximal pressure transducer. The IC microcatheter (Progreat Microcatheter System, Terumo, Japan) used was positioned at the coronary ostium, and FFR was then measured by increasing IC continuous adenosine or UTP infusion rates in equimolar concentrations from 10 to 400 μg/min via the microcatheter.
After femoral catheterization, coronary angiography was performed with the standard femoral approach. Heparin was administered according to standard procedures.
Intracoronary nitroglycerin (0.2-0.3 mg) was administered before the control angiograms were made in the microcatheter study. Heart rate and arterial pressure were continuously monitored throughout the procedure. After a guiding catheter (5F catheter, Cordis Corp.) without side holes was positioned at the coronary ostium, coronary angiograms were obtained from multiple projections. Quantitative coronary analysis was performed by using an independent analyzer blinded to the results of FFR using a computer-assisted, automated computerized edge-detection algorithm (Siemens Medical System). The external diameter of the contrast-filled catheter was used as a calibration standard. Minimal luminal diameter, vessel diameter of the reference segment, and the percent diameter stenosis at end diastole were measured from the worst-view trace. After coronary angiography, a 0.014-in. pressure wire (Combowire, Volcano Corporation, US) was advanced distally to the stenosis through a 6F guiding catheter. In the microcatheter study, an IC bolus injection of nitroglycerin (0.2-0.3 mg) was given before advancing the pressure wire through the stenosis in order to avoid any mechanically-induced coronary vasoconstriction. The pressure wire was externally calibrated and then advanced to the distal tip of the catheter. It was verified whether equal pressure was recorded at both the catheter and the pressure wire. The pressure wire was advanced through the coronary catheter, introduced into the coronary artery, and positioned distal to the stenosis.
Distal coronary pressure (Pd) and proximal coronary pressure (Pa) were measured at baseline and at maximal hyperemia (adenosine vs. UTP) simultaneously. Fractional flow reserve was calculated by dividing mean Pd by mean Pa during maximal hyperemia. The time to optimal vasodilatation (time needed to reach >90% of the minimal value of Pd/Pa after administration of the adenosine or UTP) was computed in order to assess whether procedure time was prolonged. The hyperemic stimuli were given as follows: an IC continuous infusion of adenosine or UTP in incremental doses of 10, 20, 40, 80, 160, 240, […] and 400 μg/min, in both the left and right coronary artery depending upon lesion anatomy. The dosages were increased stepwise by IC continuous infusion with the microcatheter where the stepwise dose increase was recorded continuously without breaks. After each stepwise increase, FFR and CFR were recorded automatically. The next hyperemic stimulus UTP vs adenosine was given when Pa, Pd, and heart rate returned to their baseline values.

[2] = tested on: pulmonary and systemic circulation of healthy female pigs; assay: Systemic (central intravenous) nucleotide infusion in pigs, hemodynamic response; assay type: in vivo; details: for increase in CO (cardiac output): FIG. 7b; for increase in HR from baseline: FIG. 7c; for decrease in SV (stroke volume): FIG. 7d; for MAP lowered by, from baseline: p<0.05, FIG. 7a; for decrease in PVR (pulmonary vascular resistance) from baseline: pig, in vivo
Protocol: In the present study, the hemodynamic response in the pulmonary and systemic circulation was tested, as well as the effect of central intravenous infusions of ATP, ADP, ADO, and UTP on the heart.
Infusion rates were aimed at exerting a pronounced systemic response in the lowering of arterial blood pressure, but avoiding a total circulatory collapse.
Methods: 10 healthy female pigs (Department of Experimental Medicine and Surgery, University of Copenhagen, Denmark) bred as a combination of the Danish Landrace (⅓) and Yorkshire (⅔), with a medium weight of 41±2 kg were investigated.
Mean arterial blood pressure (MAP) was obtained from the catheter in arcus aorta with the transducer (Pressure Monitoring Kit, Baxter, Deerfield, Ill., USA) positioned at the level of the heart. The left femoral artery was subsequently exposed and an ultrasound doppler probe attached for peripheral femoral artery flow measurements (CM-4000, Cardiomed, Norway). MAP, HR and peripheral flow were monitored and data continuously collected using a PowerLab system (Adinstruments, Australia). Cardiac Output (CO) was determined in triplicates by thermodilution, following an injection of 10 ml of cooled saline solution. Blood samples were withdrawn from catheters in aorta and the right atrium at baseline and at steady state when MAP had decreased maximally or by ˜50%. Calculated variables were: stroke volume of the heart (SV=CO/HR), pulmonary vascular resistance (PVR=(MPAP−PCWP)/CO), systemic vascular resistance (SVR=(MAP−MRAP)/CO), leg vascular conductance (LVC=LBF/(MAP−MRAP)), and arterial (aorta) and mixed venous (pulmonary artery) oxygen content (Hb*1.34*O2 saturation). In the calculation of LVC, MRAP was used as an estimate of mean femoral venous pressure (MFVP), as MRAP was found in a series of measurements to equal MFVP, as estimated in 10 supine pigs. As a potential estimate for myocardial oxygen demand the rate pressure product (RPP=MAP*HR) was also calculated.
Drug infusions: Each animal was administered the nucleotides ATP, UTP, ADP (Sigma, St. Louis, Mo., USA) and ADO (Item Development AB, Stocksund, Sweden), through the internal jugular vein in the right atrium, in random order following blinded allocation. The nucleotides and ADO were prepared by dissolving in saline so as to achieve the target concentration of ATP (40±0.5 μmol/min), ADP (43±8 μmol/min), UTP (up to 1,600 μmol/min), and ADO (73±7 μmol/min). The nucleotides were infused in increasing dosages at 2 min intervals aiming at reducing MAP by maximally ˜50%. Thereafter, that specific infusion rate was maintained for ˜3-5 min. After each intervention the animal rested for ˜30 min, allowing resting cardiovascular variables to be reestablished. Thereafter, a new cycle of nucleotide infusion was administered. In the present study we aimed to allow the drugs to reduce MAP by ˜50%, but without inducing a hemodynamic and circulatory collapse, to simulate a pronounced state of systemic vasodilation, as may be observed for instance in a shock condition.

| SMILES | FFR Mean ([1]; mean of patients, 10 μg/min) | FFR Mean ([1]; mean, 20 μg/min) | FFR Mean ([1]; mean, 40 μg/min) | FFR Mean ([1]; mean, 80 μg/min) | FFR Mean ([1]; mean, 160 μg/min) | FFR Mean ([1]; mean, 240 μg/min) | FFR Mean ([1]; mean, 320 μg/min) | FFR Mean ([1]; mean, 400 μg/min) | % of patients with FFR ≦ 0.8 ([1]; 80 μg/min (n = 8)) | % of patients with FFR ≦ 0.8 ([1]; 160 μg/min (n = 6)) | % of patients with FFR ≦ 0.8 ([1]; 320 μg/min (n = 9)) | % of patients with FFR ≦ 0.8 ([1]; 400 μg/min (n = 3)) | adverse effects during IC continuous infusion [1] | optimal dose for achieving maximal coronary hyperemia and thereby the lowest FFR ([1]; microcatheter) | increase in CO (cardiac output) [2] | increase in HR from baseline [2] | decrease in SV (stroke volume) [2] | decrease in SVR (systemic vascular resistance) from baseline ([2]; p<0.05) [%] | increase in LVC (leg vascular conductance) from baseline ([2]; p<0.05) | MAP lowered by, from baseline [2] [%] | further results |
| --- | --- | --- | --- | --- | --- | --- | --- | --- | --- | --- | --- | --- | --- | --- | --- | --- | --- | --- | --- | --- | --- |
| O=c1ccn([C@@H]2O[C@H](COP(=O)(O)OP(=O)(O)OP(=O)(O)O)C(O)[C@@H]2O)c(=O)[nH]1 (stereo partly drawn) [UTP, Uridine 5-triphosphate] | 0.84 | 0.83 | 0.83 | 0.78 | 0.79 | 0.79 | 0.79 | 0.79 | 62 % of patients | 50 % of patients | 44 % of patients | 33 % of patients | None of the patients had chest pain in the UTP group; also recorded: All patients tolerated UTP without side effects | approximately 80 μg/min | 72.5±15.2% and ~70% | 51.1±9.0% | did not significantly change SV | 62.9±2.6 | 150.0±17.1% and ~150% | 35.0±3.2 | FFR in comparison to IC adenosine infusion ([1]; P<0.05): significantly lower; steady-stable hyperemia lasted longer compared to adenosine infusion ([1]; in vivo): ~20 s; FFR ([1]; individual patients (row = patient no.), IC continuous infusion 10 μg/min, microcatheter): 0.72 and 0.95 and 0.84; FFR ([1]; individual patients, 20 μg/min): 0.71 and 0.95; FFR ([1]; individual patients, 40 μg/min): 0.72 and 0.95 and 0.83; FFR ([1]; individual patients, 80 μg/min): 0.73 and 0.79 and 0.88 and 0.56 and 0.71 and 0.97 and 0.83; FFR ([1]; individual patients, 160 μg/min): 0.90 and 0.73 and 0.79 and 0.86 and 0.56 and 0.71 and 0.92 and 0.83; FFR ([1]; individual patients, 240 μg/min): 0.89 (2×) and 0.73 and 0.79 and 0.87 and 0.55; FFR ([1]; individual patients, 400 μg/min): 0.90 and 0.92 and 0.56; induction time to optimal coronary hyperemia ([1]; versus IC continuous adenosine infusion): shorter; arrhythmias (missed beats, VT, SVT or AV nodal block) ([2]; intravenous systemic infusion): does not produce arrhythmias; infusion rate giving the ~35% reduction in MAP ([2]; maximal MAP reduction obtainable with UTP): 86.5 ± 18.2 µmol/min; increase in LBF (leg blood flow) ([2]; p<0.05, FIG. 6c): 53.7±17.8% and ~50%; decrease in PVR (pulmonary vascular resistance) from baseline [2]: did not significantly alter; decrease in rate pressure product ([2]; tendency): ~10% |
| Nc1ncnc2c1ncn2[C@@H]1O[C@H](CO)[C@@H](O)[C@H]1O [adenosine] | 0.90 | 0.88 | 0.86 | 0.84 | 0.82 | 0.81 | 0.82 | 0.82 | 37 % of patients | 33 % of patients | 44 % of patients | 33 % of patients | nearly all felt angina in the adenosine group; also recorded: some patients had a transient second degree A-V block; also recorded: nearly all patients experienced side effects | ~240 µg/min | 31.4±9.9% | did not increase | did not significantly change SV | 59.0±3.0 | ~50% | 47.2±1.5 | FFR ([1]; individual patients (row = patient no.), IC continuous infusion 10 μg/min, microcatheter, listed as ADO): 0.81 and 0.94 and 0.86 and 0.99; FFR ([1]; individual patients, 20 μg/min, listed as ADO): 0.75 and 0.94 and 0.95; FFR ([1]; individual patients, 40 μg/min, listed as ADO): 0.73 and 0.94 (2×) and 0.82; FFR ([1]; individual patients, 80 μg/min, listed as ADO): 0.83 and 0.95 and 0.76 and 0.71 and 0.94 and 0.82 and 0.88; FFR ([1]; individual patients, 160 μg/min, listed as ADO): 0.80 and 0.95 (2×) and 0.60 and 0.68 and 0.85 and 0.96 and 0.75; FFR ([1]; individual patients, 240 μg/min, listed as ADO): 0.81 and 0.94 and 0.60 and 0.87 and 0.91 and 0.71; FFR ([1]; individual patients, 400 μg/min, listed as ADO): 0.56 and 1.01 and 0.89; decrease in LBF (leg blood flow) from baseline ([2]; p<0.05): 19.4±10.7%; increase in LVC (leg vascular conductance) from baseline ([2]; p<0.05, listed as ADO): 56.4±12.9%; decrease in PVR (pulmonary vascular resistance) from baseline [2]: 34.3±2.6%; infusion rate at target MAP ([2]; target ~50% reduction in baseline MAP, right atrium infusion): 72.7 ± 6.6 µmol/min |

From patent US8394355B2, “Use of UTP for the diagnosis of stenoses and other conditions of restricted blood flow” (P2 science Aps, priority 2009, dated 2013)
